The structures appear in SMILES notation. Where a SMILES comes first, the peptide text is derived from it. Bridges are numbered along the chain shown (N, C = ends).

This assay can be described thus: LPS neutralization, chromogenic limulus amebocyte lysate assay. In kind it is biochemical, E. coli. As to conditions: 8 μg/mL MccJ25, LPS 1 EU/mL, 37°C, A405. As for the experimental part:
The neutralizing impacts of MccJ25 on LPS were assessed according to a color-emitting […] assay. Levels of E. coli LPS (1 EU/mL) were prepared and combined with various concentrations of MccJ25 (1 to 128 µg/mL) and inoculated in the wells of sterile microtiter plates at 37°C. Then, 50 μL of the above mixture was extracted, the same volume of […] reagent was added, and the mixture was incubated for 10 min at 37°C. […] The reaction was finished by adding 25% acetic acid, and finally, its absorbance value at 405 nm was measured.

With `CC[C@H](C)[C@H](NC(=O)CNC(=O)[C@@H](NC(=O)[C@H](Cc1ccccc1)NC(=O)[C@H](Cc1ccc(O)cc1)NC(=O)[C@@H]1CCC(=O)NCC(=O)NCC(=O)N[C@@H](C)C(=O)NCC(=O)N[C@@H](Cc2c[nH]cn2)C(=O)N[C@@H](C(C)C)C(=O)N2CCC[C@H]2C(=O)N1)C(C)C)C(=O)NCC(=O)N[C@H](C(=O)N1CCC[C@H]1C(=O)N[C@H](C(=O)N[C@@H](CO)C(=O)N[C@@H](Cc1ccccc1)C(=O)N[C@@H](Cc1ccc(O)cc1)C(=O)NCC(=O)O)[C@@H](C)CC)[C@@H](C)O` [MccJ25, microcin J25] (GGAGHVPEYFVGIGTPISFYG-OH; lactam N-8 (inferred); C-terminus assumed), the LPS neutralization came out at 92.59%.

The values are drawn from publication PMC8894198, “Biosynthetic Microcin J25 Exerts Strong Antibacterial, Anti-Inflammatory Activities, Low Cytotoxicity Without Increasing Drug-Resistance to Bacteria Target” (Frontiers in Immunology, 2022).
